The numbers were not newly measured in patent US20230405076A1, “COMPOSITION COMPRISING AKKERMANSIA MUCINIPHILA AND GREEN TEA EXTRACT” (A-MANSIA BIOTECH, priority 2020, published 2023), which cites them from elsewhere.

In data set [1] the test system is Akkermansia genus in the Verrucomicrobia. The note with it: high fat diet mice, Ushiroda 2019.
For data set [2] the following is noted: via EGCG promoted increase of Akkermansia muciniphila, Sheng 2018.

As to Epigallocatechin-3-gallate, the “abundance of the Akkermansia genus” value in data set [1] is on record as “increase”. In data set [2], the “diet-increased obesity, visceral fat, and insulin resistance” value is listed as “effectively reduces”.
